Reference: patent US20060019977A1, “Spiroheterocyclic derivative compounds and drugs comprising the compound as the active ingredient” (ONO PHARMACEUTICAL CO., LTD., priority 2002, published 2006)
Structures can show the parent of a compound that is named as a salt.

Target: T1, human CCR5 (Homo sapiens, UniProt P51681)
T1 construct: expressed in transfected cells
Assay: Inhibition test on the binding of RANTES to CCR5 (RANTES-induced transient increase of Ca ion in CCR5/CHO cells)
Assay type: cell-based
Settings: human CCR5 stably over-expressing CHO cells; 10 nM recombinant human RANTES; Ca2+ transient increase (Fura-2AM)
Method: Specifically, e.g., since CCR5 is a G protein-coupled seven transmembrane type receptor, an assay system in which the effect of RANTES on the transient increase of Ca ion induced via CCR5 is measured can be carried out as an assay system for screening a compound capable of inhibiting binding of RANTES to CCR5. Since both of the T cell tropic (X4) HIV and SDF-1 bind to CXCR4, similar idea can be considered.
(1) Isolation of Human CCR5 Gene
Human placental cDNA was prepared using Marathon cDNA amplification kit (Clontech). PCR primers hCCR5XbaI-F1: • 5′-[…]-3′ (SEQ ID NO:1) and hCCR5XbaI-R1: • 5′-[…]-3′ (SEQ ID NO:2) were designed based on the sequence of GenBank U54994. […]
The thus established human CCR5 stably over-expressing CHO cell (CCR5/CHO cell) was suspended in Ham's F-12 medium containing FBS (10%) and dispensed in […] portions into a 96 well plate. […] Transient increase in the intracellular Ca^2+ concentration induced by the human RANTES was measured using a Ca^2+ detector for 96 well use (Hamamatsu Photonics), and inhibition ratio (%) of the test compound was calculated by the following calculation formula. Inhibition ratio=(Ec−Ea)/Ec×100 • Ec: measured value of Ca^2+ transient increase by RANTES • Ea: measured value of Ca^2+ transient increase by RANTES when a test compound was added

T1 sequence (P51681 whole entry): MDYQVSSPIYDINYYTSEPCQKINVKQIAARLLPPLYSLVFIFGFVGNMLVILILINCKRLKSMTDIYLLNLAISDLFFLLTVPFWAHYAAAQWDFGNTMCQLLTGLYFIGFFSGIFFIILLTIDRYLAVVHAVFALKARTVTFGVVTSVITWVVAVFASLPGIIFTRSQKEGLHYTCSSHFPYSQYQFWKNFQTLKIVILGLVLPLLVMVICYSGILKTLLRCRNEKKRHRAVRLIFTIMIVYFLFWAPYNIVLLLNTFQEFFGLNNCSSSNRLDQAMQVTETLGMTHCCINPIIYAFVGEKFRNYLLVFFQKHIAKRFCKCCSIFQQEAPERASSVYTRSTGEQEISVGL

How did the IC50 turn out when `CCCCN1C(=O)[C@@H]2CSCN2C(=O)C12CCN(Cc1ccc(Oc3ccccc3)cc1)CC2` [Example 1(1), (3R)-1-butyl-2,5-dioxo-3,4-(2-thiapropano)-9-[(4-phenoxyphenyl)methyl]-1,4,9-triazaspiro[5.5]undecane hydrochloride] was run?
Its IC50 is 740 nM.

How did the IC50 turn out when `CCCCN1C(=O)C2(CCCC2)NC(=O)C12CCN(Cc1ccc(Oc3ccc(C(=O)NC)cc3)cc1)CC2` [Example 5, 1-butyl-2,5-dioxo-3,3-butano-9-[4-(4methylcarbamoylphenoxy)benzyl]-1,4,9-triazaspiro[5.5]undecane hydrochloride] was run?
Its IC50 is 12 nM.
